The values that follow come from paper PMC12196043, “In Vivo PK-PD and Drug–Drug Interaction Study of Dorzagliatin for the Management of PI3Kα Inhibitor-Induced Hyperglycemia” (Pharmaceuticals, 2025).

SMILES strings stand for the structures. Several values for one entry are separate records, joined by “and”; a condition that tells them apart may be missing. Identical values can stand only once. Like-named read-outs stand apart in the source and are kept apart here.

One may read the Cmax as the peak of the concentration-time curve. Broadly, the Tmax is the time at which the peak concentration occurs. What is called AUC(0-t) is the area under the concentration-time curve up to a stated or last time point. The term half-life denotes the time in which the quantity being followed falls by half.

The conditions of series [1]: cited from earlier work.
A short description of series [2]: Plasma pharmacokinetics by LC-MS/MS in OVCAR3 xenograft tumor-bearing nude mice. The series is classed as in vivo, BALB/c nude mice. Conditions: n = 3; for AUC(0-t) / half-life / Cmax: po, 25 mg/kg; for Cmax: read-out: Cmax. Here is the method:
(§1) This study, approved by Fudan University Ethics Committee (protocol code: 201904008Z) on 26 April 2019, was conducted in compliance with AAALAC’s International Commission guidelines for laboratory animal evaluation and accreditation. A total of 36 female BALB/c nude mice (6–8 weeks old, weighing 18–20 g) were purchased from Charles River Laboratories (Pinghu, China). The OVCAR3 ovarian cancer cell line (ATCC® HTB-161™) was used to establish human xenografts. OVCAR3 cells (10 × 10^6) suspended in 0.2 mL of Matrigel were subcutaneously inoculated into the dorsal region of each mouse. Tumors were allowed to grow until reaching a volume of ~160 mm^3, typically around 30 days post-inoculation.
(§2) WX390 was prepared in Solvent-1, comprising dimethyl sulfoxide (DMSO): methylcellulose: water at a ratio of 1:1:98 (v/v/v). BYL719 and dorzagliatin were formulated in Solvent-2, consisting of Tween 80: water with 0.5% methylcellulose (MC) solution at a ratio of 0.2:99.8 (v/v). The treatment control was a combination of Solvent-1 and Solvent-2. The test compounds were administered orally as follows: WX390 at 0.2 mg/kg, BYL719 at 25 mg/kg, and dorzagliatin at 10 mg/kg, dissolved in their respective formulations. Due to ethical considerations regarding gavage volume the administration volume across all groups was standardized to 10 μL/g of body weight.
(§3) The experiment involved six treatment groups, each comprising six mice. The groups included: (i) vehicle control, (ii) WX390 (0.2 mg/kg), (iii) BYL719 (25 mg/kg), (iv) dorzagliatin (10 mg/kg), (v) WX390 (0.2 mg/kg) + dorzagliatin (10 mg/kg), and (vi) BYL719 (25 mg/kg) + dorzagliatin (10 mg/kg). All treatments were administered via oral gavage once daily for four weeks. In the combination group of PI3Ki and dorzagliatin, dorzagliatin was administered 30 min prior to PI3Ki.
Following the 4-week treatment period, all experimental groups were fasted 6 h before the last administration until the end of the experiment. Water was not restricted during the fasting period. Blood samples were collected at 0, 0.5, 1, 2, 4, and 8 h after administration. Each mouse had 3 blood collection points, with 50 μL of plasma collected at each point. Mice in each group were allocated to two cohorts: The first cohort underwent blood collection at 0, 1, and 2 h post-administration, while the second cohort was sampled at 0.5, 4, and 8 h post-administration. Terminal blood collection at the 2-h time point for the first cohort was performed via cardiac puncture following euthanasia, during which tumor tissues were concurrently harvested from this cohort. Blood samples were processed through centrifugation (4 °C, 1500× g for 10 min) for plasma separation. All plasma and tumor samples were immediately snap-frozen in liquid nitrogen and stored at −80 °C for subsequent analysis.
The extraction of WX390, BYL719, and dorzagliatin from plasma samples was performed using protein precipitation. Internal standards (IS) included SBL-D3, BNSL-D5, and PLPL-D8 for WX390, BYL719, and dorzagliatin, respectively. Plasma samples (20 μL) were mixed with 20 μL of zinc sulfate aqueous solution (0.1 mol/L) and 200 µL of a 50% methanol solution containing three internal standards followed by vortexing for 10 min. The samples were centrifuged at 4 °C (15,000× g for 5 min). The supernatant (180 μL) was transferred to a clean Eppendorf tube, and a 10 μL aliquot was injected into the LC-MS/MS system.
Chromatographic separations were performed using an AB SCIEX Jasper HPLC system coupled with an AB SCIEX Triple Quad 4500MD mass spectrometer (AB SCIEX, USA). A Phenomenex Kinetex C18 column (100 × 3 mm, 2.6 μm) was used at 40 °C. The flow rate was maintained at 0.4 mL/min with a total run time of 4 min. […]

Series [3] has as its system CYP3A4. The arrangement: method as in ref 31 = [31]; 31. FDA Label of PIQRAY® (Alpelisib) FDA Silver Spring, MD, USA 2019. Conditions: repeated doses of 300 mg BYL719 with midazolam and other substrates, everolimus; cited from earlier work.
The conditions of series [4]: major metabolite BZG791; CYP3A4 to a lesser extent; no reference given; cited from earlier work.
Series [5] relates to P-gp. Conditions: cited from earlier work.
The conditions of series [6]: human, in vivo; cited from earlier work.
Series [7] concerns OVCAR3 xenograft tumor. Put plainly: In vivo tumor growth, OVCAR3 subcutaneous xenograft tumor model. The arrangement: species or system BALB/c nude mice. The following applies: n = 6. On the procedure:
as §1, §2, §3
Tumor dimensions were measured biweekly using a vernier caliper. Tumor volume was calculated using the formula:(1) V=0.5a×b^2 where: • a represents the longest tumor diameter. • b represents the shortest diameter.
The antitumor efficacy of each group was evaluated using TGI or T/C. TGI (%) reflects the rate of tumor growth inhibition and is calculated as follows:(2) TGI%=1−Vend−V0exp/Vend−V0control×100% where: • Vend represents mean tumor volume at the end of treatment in the group. • V0 represents mean tumor volume at the start of treatment in the group. • exp represents the treated groups. • control represents the vehicle control group.
T/C (%) is calculated using the formula:(3) T/C%=TRTV/CRTV×100% where: • TRTV is the Relative Tumor Volume of the treatment group. • CRTV is the Relative Tumor Volume of the negative control group.
The Relative Tumor Volume (RTV) is calculated based on tumor measurement results using the formula:(4) RTV=Vt/V0 where: • V0 is the mean tumor volume at the time of grouping (day 0). • Vt is the mean tumor volume at a given measurement time.
TRTV and CRTV are based on data from the same day.
At the conclusion of the experiment, tumor weights were measured, and the T/C was calculated. Tweight and Cweight represent the tumor weights of the treatment group and the vehicle control group, respectively.

Setting [8] is: female, BALB/c nude, mouse, plasma, PI3Ki measured in combination group with Dorz 10 mg/kg (given 30 min before), WX390 0.2 mg/kg or BYL719 25 mg/kg oral.
The mark [9] stands for this setting: female, BALB/c nude, mouse, plasma, monotherapy group, plasma, oral gavage once daily for four weeks, Dorz 10 mg/kg, WX390 0.2 mg/kg, BYL719 25 mg/kg.
Setting [10] is: based on tumor volume on day 28, vs vehicle.

In the case of `Cc1nc(NC(=O)N2CCC[C@H]2C(N)=O)sc1-c1ccnc(C(C)(C)C(F)(F)F)c1` [BYL719, alpelisib], in series [1] (300 mg/day), the AUC0→24h is 33,224 ng·h/mL and the Cmax is recorded as 2480 ng/mL. In addition, in series [1], the “apparent volume of distribution” value is on record as 114 L, the clearance rate is 9.2 L/h, the “effect of food intake on pharmacokinetic profile” value is reported as “does not significantly affect” and the “plasma protein binding rate” value was 89%. Moreover, the “dose proportionality of exposure” value in series [1] (fed conditions, doses 30 to 450 mg) was “increases proportionally”. Besides, the Tmax in series [2] (PI3Ki measured in combination group with Dorz 10 mg/kg (given 30 min before), WX390 0.2 mg/kg or BYL719 25 mg/kg oral) stood at 1.00 h. In addition, in series [2] (setting [8]), the AUC(0-t) stood at 24800 ng·h/mL, the half-life is 6.72 h and the Cmax was 4210 ng/mL. Also, in series [2] (setting [9]), the AUC(0-t) worked out at 29000 ng·h/mL, the half-life is 5.33 h and the Cmax came out at 4790 ng/mL. For the same compound, the Tmax in series [2] (female, BALB/c nude, mouse, monotherapy group, plasma, oral gavage once daily for four weeks, Dorz 10 mg/kg, WX390 0.2 mg/kg, BYL719 25 mg/kg, read-out: Tmax) stood at 1 h. In addition, the CYP3A4 inhibitor status entry in series [3] is on record as “not a CYP3A4 inhibitor”. In addition, in series [4], the “metabolic route (in vitro studies)” value is “primarily metabolized through chemical degradation and enzymatic hydrolysis”. In addition, the P-gp inhibitor status result in series [5] was “P-gp inhibitor”. Further, in series [6], the “rate of hyperglycemia, any grade” value is 63.7%; the “rate of hyperglycemia, grades 3–4” value was 36.6%; the “treatment discontinuation rate due to hyperglycemia” value was 6.3%. Also, in series [7] (setting [10]), the “T/C (Relative Tumor Growth Rate)” value is 52.85% and the “TGI (Tumor Growth Inhibition)” value turned out to be 52.46%. Moreover, the “Tumor Volume (Day 28)” value in series [7] (day 28 after administration, oral once daily, Dorz 10 mg/kg, WX390 0.2 mg/kg, BYL719 25 mg/kg, vehicle 1582 mm^3) was 836 mm^3 and 836 ± 71 mm^3.
